Laboratory results published in patent publication US4216164A, “Ureide inhibitors of connective tissue destruction” (American Cyanamid Company, priority 1978, dated 1980).
“And” between values parts separate entries of the source, which are not always exact repeats. Equal entries are not always repeated. Structures can show the parent of a compound that is named as a salt.

Experiments:
[1] = system: fibroblast collagenase and leukocyte neutral protease; experiment: Enzymatic Degradation of Collagen of Human Gingiva; type: biochemical; details: 37° C., 36 hours, control 102.3
Description: The test compounds are able to inhibit the degradation of collagen of gingival tissue. Dried pieces of human gingiva were incubated at 37° C. for 36 hours with fibroblast collagenase and leukocyte neutral protease in the presence of test compound (30 and 50 μg./ml.). Antibiotics were present to prevent bacterial growth. After incubation, the residual tissue was hydrolyzed in 6 N hydrochloric acid and the hydroxyproline content (collagen) was determined. When collagenase and neutral protease were added to human gingiva, approximately 100 μg of collagen/mg. dry tissue was digested. If the test compound was present, degradation of gingival collagen was inhibited.

[2] = molecular target: T1, Gingival Crevicular Fluid Collagenase (Homo sapiens, UniProt P22894); experiment: Crevicular Fluid Assay; type: biochemical; details: diseased crevicular fluid + 30 mcg./ml. compound; control 66 ± 9; p<0.0005
T1 construct: from tissue; host or cells: gingival crevicular fluid of a volunteer with periodontal disease
T1 sequence (P22894 101-467): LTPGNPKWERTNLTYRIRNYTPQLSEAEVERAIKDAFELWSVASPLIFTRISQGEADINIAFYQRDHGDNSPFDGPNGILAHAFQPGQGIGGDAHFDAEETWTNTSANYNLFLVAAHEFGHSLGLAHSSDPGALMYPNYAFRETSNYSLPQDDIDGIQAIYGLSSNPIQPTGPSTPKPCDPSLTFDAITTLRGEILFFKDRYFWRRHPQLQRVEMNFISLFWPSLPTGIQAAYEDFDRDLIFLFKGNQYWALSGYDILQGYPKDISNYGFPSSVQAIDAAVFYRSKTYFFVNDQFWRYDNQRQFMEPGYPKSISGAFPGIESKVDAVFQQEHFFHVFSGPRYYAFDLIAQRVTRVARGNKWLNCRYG
Source text: (§1) An active inhibitor would inhibit the degradation of the collagen fibril; (iii) Leukocyte Neutral Proteases Inhibitor Assay--This test measures the ability of neutral proteases derived from human leukocytes to degrade radiolabeled proteoglycans entrapped in polyacrylamide beads.
(ii) Crevicular Fluid Assay
Effect of Test Compounds on Gingival Crevicular Fluid Collagenase
Since studes by Golub, et al., Dental Res., 55, 1049 (1976) have shown that the crevicular collagenase plays a major role in the degradation of collagen in periodontal tissue, the effect of test compounds on collagen degradation by this system was examined. A volunteer with diagnosed periodontal disease was used. […] After one minute, the filter paper strip was removed and the volume of the gingival crevicular fluid was measured with the aid of the Periotron (Harco Electronics, Ltd., Winnipeg, Canada). The volume of the fluid gathered from the crevice by the filter paper strip is translated by a unique transducer onto a digital readout screen. […] After reading on the meter, 1 μl. of trypsin (1.5 μg./ml.) was added to the filter paper (to activate any latent collagenase present) and after five minutes at room temperature 1 μl. of aprotinin was added. […] The tubes were centrifuged as described above and a 200 μl. aliquot of the clear supernatant was assayed for radioactivity.

[3] = system: neutral proteases derived from human leukocytes; experiment: Leukocyte Neutral Proteases Inhibitor Assay; type: biochemical; details: for Percent Inhibition of Neutral Protease Activity ^3 H: ^3 H label; for Percent Inhibition of Neutral Protease Activity ^35 S: ^35 S label
Description: as §1
(iii) Leukocyte Neutral Proteases Inhibitor Assay
Assays of Leukocyte Neutral Proteases Using ^3 H/^35 S Labeled Proteoglycans
This assay system contained (total volume of 1 ml.) 60 mM Tris-Cl, pH 7.4; 2.5 mM calcium chloride; 2.5 mM magnesium chloride; 2 mg. (dry weight) of polyacrylamide beads entrapped with labeled proteoglycans, and an aliquot of the leukocyte neutral protease preparation. The reaction mixture was incubated at 37° C. for 30 minutes in a shaking water bath. The reaction was terminated by the addition of 0.2 ml. of 5% HCl (v/v). After five minutes at room temperature, the mixture was centrifuged and the clear supernatant (0.6 ml.) was assayed for radioactivity. To determine the effect of the test compounds on degradation of proteoglycans by neutral proteases, various concentrations of the compounds were added to the reaction mixture. Appropriate blanks were included.

[4] = molecular target: T2, human skin fibroblast collagenase (Homo sapiens, UniProt P03956); experiment: Collagenase Assay, Test Code 006; type: biochemical; details: test conc.: 30 μg./ml.
T2 construct: endogenous in cells; host or cells: human skin fibroblasts
T2 sequence (P03956 100-469): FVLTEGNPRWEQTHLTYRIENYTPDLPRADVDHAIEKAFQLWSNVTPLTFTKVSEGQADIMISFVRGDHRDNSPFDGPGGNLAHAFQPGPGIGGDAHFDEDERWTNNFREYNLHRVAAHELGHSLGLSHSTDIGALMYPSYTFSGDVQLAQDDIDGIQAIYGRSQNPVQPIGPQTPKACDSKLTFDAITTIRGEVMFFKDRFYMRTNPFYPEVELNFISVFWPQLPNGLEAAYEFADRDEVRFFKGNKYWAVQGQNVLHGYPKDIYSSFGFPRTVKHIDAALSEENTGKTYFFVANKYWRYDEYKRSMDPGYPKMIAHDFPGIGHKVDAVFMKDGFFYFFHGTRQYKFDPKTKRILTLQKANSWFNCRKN
Description: (i) Collagenase Assay--Test Code 006
In a typical assay (total volume of 0.45 ml.), 100 μl. of the activated enzyme was added to the ^14 C-labeled collagen fibrils (250 μl.) followed by 100 μl. of 50 mM cacodylate, pH 7.4, containing 5 mM calcium chloride. After incubation at 37° C. for 16 hours, the tubes were centrifuged in a Beckman microfuge for five minutes at full speed. An aliquot (200 μl.) of the supernatant, representing collagenase digestion products of the fibril, was assayed for radioactivity. The effect of the test compound on collagen degradation by collagenase was examined as follows:
Appropriate blanks and trypsin controls were run in parallel.

corneal ulcerations = details: alkali burned rabbit; directly applied to corneal ulcerations; cited from earlier work
collagenase = details: Thromb. Res. 1977, 10(4), 605-11; cited from earlier work
corneal ulceration = details: human; cited from earlier work

In the case of O=C(Nc1cccc(C(=O)Nc2ccc3cc(S(=O)(=O)O)cc(O)c3c2)c1)Nc1cccc(C(=O)Nc2ccc3cc(S(=O)(=O)O)cc(O)c3c2)c1 [6,6'-[Ureylenebis(3,1-phenylenecarbonylimino)]bis[4-hydroxy-] [6,6'-[Ureylenebis(m-phenylenecarbonylimino)]bis[4-hydroxy-2-naphthalenesulfonic acid]disodium salt], the “mcg. of Collagen degraded per mg. of dry gingiva” value ([1]; neutral proteases plus 30 mcg./ml. compound) is reported as 60.4 mcg. per mg, the “mcg. of Collagen degraded per mg. of dry gingiva” value ([1]; neutral proteases plus 50 mcg./ml. compound) is reported as 27.4 mcg. per mg and the “cpm Collagen Degraded/Unit Periotron Reading” value [2] is reported as 16 ± 6 cpm. For the same molecule, the “Percent Inhibition of Neutral Protease Activity ^3 H” value ([3]; 0.5 mcg./ml.) was 0%, the “Percent Inhibition of Neutral Protease Activity ^35 S” value ([3]; 0.5 mcg./ml.) was 0% and the “Percent Inhibition of Neutral Protease Activity ^3 H” value ([3]; 1.0 mcg./ml.) was 17%. The “Percent Inhibition of Neutral Protease Activity ^35 S” value ([3]; 1.0 mcg./ml.) was 31%, the “Percent Inhibition of Neutral Protease Activity ^3 H” value ([3]; 2.0 mcg./ml.) was 21% and the “Percent Inhibition of Neutral Protease Activity ^35 S” value ([3]; 2.0 mcg./ml.) was 37%. The “Percent Inhibition of Neutral Protease Activity ^3 H” value ([3]; 5.0 mcg./ml.) was 47%, the “Percent Inhibition of Neutral Protease Activity ^35 S” value ([3]; 5.0 mcg./ml.) was 74% and the “Percent Inhibition of Neutral Protease Activity ^3 H” value ([3]; 10.0 mcg./ml.) was 63%. For the same molecule, the “Percent Inhibition of Neutral Protease Activity ^35 S” value ([3]; 10.0 mcg./ml.) was 91%.

With O=C(Nc1cccc(C(=O)Nc2ccc3cc(S(=O)(=O)O)cc(O)c3c2)c1)Nc1cccc(C(=O)Nc2ccc3cc(S(=O)(=O)O)cc(O)c3c2)c1 [6,6'-[Ureylenebis(3,1-phenylenecarbonylimino)]bis[4-hydroxy-] [6,6'-[Ureylenebis(m-phenylenecarbonylimino)]bis[4-hydroxy-2-naphthalenesulfonic acid]tetrasodium salt] the “% Inhibition of Collagenase” value [4] was 82% and 81%.

For O=C(Nc1cccc(C(=O)Nc2ccc3cc(S(=O)(=O)O)cc(O)c3c2)c1)Nc1cccc(C(=O)Nc2ccc3cc(S(=O)(=O)O)cc(O)c3c2)c1 [6,6'-[Ureylenebis(m-phenylenecarbonylimino)]bis[4-hydroxy-2-naphthalenesulfonic acid]disodium salt], the inhibition at 30 µg/mL [4] was 82%.

Molecule O=C(Nc1ccc(C(=O)Nc2ccc3cc(S(=O)(=O)O)cc(O)c3c2)cc1)Nc1ccc(C(=O)Nc2ccc3cc(S(=O)(=O)O)cc(O)c3c2)cc1 [6,6'-[Ureylenebis(p-phenylenecarbonylimino)]bis[4-hydroxy-2-naphthalenesulfonic acid]tetrasodium salt] has an inhibition at 30 µg/mL [4] of 95%.

In the case of O=C([O-])CN(CCN(CC(=O)[O-])CC(=O)[O-])CC(=O)[O-].[Ca+2].[Ca+2] [Calcium ethylenediaminetetraacetate], the frequency of ulceration (corneal ulcerations) is given as “reduce the frequency of ulceration”.

For Cc1ccc(C(=O)Nc2ccc(S(=O)(=O)O)c3cc(S(=O)(=O)O)cc(S(=O)(=O)O)c23)cc1NC(=O)c1cccc(NC(=O)Nc2cccc(C(=O)Nc3cc(C(=O)Nc4ccc(S(=O)(=O)O)c5cc(S(=O)(=O)O)cc(S(=O)(=O)O)c45)ccc3C)c2)c1 [Suramin], the “inhibition of the activity of collagenase” value (collagenase) is given as “not inhibiting the action of collagenase”.

For CC(=O)N[C@@H](CS)C(=O)O [acetylcysteine], the “treatment of acute and chronic corneal ulceration” value (corneal ulceration) is listed as “effective” and the frequency of ulceration (corneal ulcerations) is listed as “reduce the frequency of ulceration”.

In the case of N[C@@H](CS)C(=O)O [cysteine], the “treatment of acute and chronic corneal ulceration” value (corneal ulceration) is listed as “effective”.

For Cc1cc(-c2ccc(/N=N/c3c(S(=O)(=O)O)cc4cc(S(=O)(=O)O)cc(N)c4c3O)c(C)c2)ccc1/N=N/c1c(S(=O)(=O)O)cc2cc(S(=O)(=O)O)cc(N)c2c1O [trypan blue], the “inhibition of the activity of collagenase” value (collagenase) is given as “inhibiting the activity of collagenase”.
